Measured values taken from PubChem BioAssay (NCI).
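A five-concentration, 48-hour dose response in 96-well plates underlies each endpoint, interpolated linearly between surrounding concentrations. TGI: concentration producing complete growth inhibition.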

Key:
Test in all cases: NCI tumour cell line growth inhibition, 48 h
786-0 renal = test system: 786-0 renal
A498 renal = test system: A498 renal
A549 NSCLC = test system: A549 NSCLC
ACHN renal = test system: ACHN renal
BT-549 breast = test system: BT-549 breast
CAKI-1 renal = test system: CAKI-1 renal
CCRF-CEM leukemia = test system: CCRF-CEM leukemia
COLO 205 colon = test system: COLO 205 colon
DLD-1 colon = test system: DLD-1 colon
DMS 114 small cell lung = test system: DMS 114 small cell lung
DMS 273 small cell lung = test system: DMS 273 small cell lung
DU-145 prostate = test system: DU-145 prostate
EKVX NSCLC = test system: EKVX NSCLC
HCC-2998 colon = test system: HCC-2998 colon
HCT-116 colon = test system: HCT-116 colon
HCT-15 colon = test system: HCT-15 colon
HL-60(TB) leukemia = test system: HL-60(TB) leukemia
HOP-18 NSCLC = test system: HOP-18 NSCLC
HOP-62 NSCLC = test system: HOP-62 NSCLC
HOP-92 NSCLC = test system: HOP-92 NSCLC
HS 578T breast = test system: HS 578T breast
HT29 colon = test system: HT29 colon
IGROV1 ovarian = test system: IGROV1 ovarian
K-562 leukemia = test system: K-562 leukemia
KM12 colon = test system: KM12 colon
KM20L2 colon = test system: KM20L2 colon
LOX IMVI melanoma = test system: LOX IMVI melanoma
LXFL 529 NSCLC = test system: LXFL 529 NSCLC
M14 melanoma = test system: M14 melanoma
M19-MEL melanoma = test system: M19-MEL melanoma
MALME-3M melanoma = test system: MALME-3M melanoma
MCF7 breast = test system: MCF7 breast
MDA-MB-231 breast = test system: MDA-MB-231 breast
MDA-MB-435 = test system: MDA-MB-435
MDA-N = test system: MDA-N
MOLT-4 leukemia = test system: MOLT-4 leukemia
NCI-H226 lung = test system: NCI-H226 lung
NCI-H23 lung = test system: NCI-H23 lung
NCI-H460 lung = test system: NCI-H460 lung
NCI-H522 lung = test system: NCI-H522 lung
NCI/ADR-RES ovarian = test system: NCI/ADR-RES ovarian
OVCAR-3 ovarian = test system: OVCAR-3 ovarian
OVCAR-4 ovarian = test system: OVCAR-4 ovarian
OVCAR-5 ovarian = test system: OVCAR-5 ovarian
OVCAR-8 ovarian = test system: OVCAR-8 ovarian
P388 leukemia = test system: P388 leukemia
P388/ADR leukemia = test system: P388/ADR leukemia
PC-3 prostate = test system: PC-3 prostate
RPMI-8226 leukemia = test system: RPMI-8226 leukemia
RXF 393 renal = test system: RXF 393 renal
SF-268 CNS = test system: SF-268 CNS
SF-295 CNS = test system: SF-295 CNS
SF-539 CNS = test system: SF-539 CNS
SK-MEL-2 melanoma = test system: SK-MEL-2 melanoma
SK-MEL-28 melanoma = test system: SK-MEL-28 melanoma
SK-MEL-5 melanoma = test system: SK-MEL-5 melanoma
SK-OV-3 ovarian = test system: SK-OV-3 ovarian
SN12C renal = test system: SN12C renal
SN12K1 renal = test system: SN12K1 renal
SNB-19 CNS = test system: SNB-19 CNS
SNB-75 CNS = test system: SNB-75 CNS
SNB-78 CNS = test system: SNB-78 CNS
SR leukemia = test system: SR leukemia
SW-620 colon = test system: SW-620 colon
T-47D breast = test system: T-47D breast
TK-10 renal = test system: TK-10 renal
U251 CNS = test system: U251 CNS
UACC-257 melanoma = test system: UACC-257 melanoma
UACC-62 melanoma = test system: UACC-62 melanoma
UO-31 renal = test system: UO-31 renal
XF 498 CNS = test system: XF 498 CNS

Structure (SMILES): O=C(/C=C/c1ccccc1)CCN1CCOCC1
- TGI (786-0 renal): 18.8 µM
- TGI (A498 renal): 44 µM
- TGI (A549 NSCLC): 56.8 µM
- TGI (ACHN renal): 28.6 µM
- TGI (BT-549 breast): 17.9 µM
- TGI (CAKI-1 renal): 16.4 µM
- TGI (CCRF-CEM leukemia): 12.1 µM
- TGI (COLO 205 colon): 20 µM
- TGI (DLD-1 colon): 22.1 µM
- TGI (DMS 114 small cell lung): 23.9 µM
- TGI (DMS 273 small cell lung): 35.9 µM
- TGI (DU-145 prostate): 40.4 µM
- TGI (EKVX NSCLC): 30.6 µM
- TGI (HCC-2998 colon): 38 µM
- TGI (HCT-116 colon): 28 µM
- TGI (HCT-15 colon): 24.4 µM
- TGI (HL-60(TB) leukemia): 16.4 µM
- TGI (HOP-18 NSCLC): 32.2 µM
- TGI (HOP-62 NSCLC): 64 µM
- TGI (HOP-92 NSCLC): 38.1 µM
- TGI (HS 578T breast): > 88.5 µM
- TGI (HT29 colon): 32.8 µM
- TGI (IGROV1 ovarian): 27.1 µM
- TGI (K-562 leukemia): 12.6 µM
- TGI (KM12 colon): 18.6 µM
- TGI (KM20L2 colon): 31.2 µM
- TGI (LOX IMVI melanoma): 24.8 µM
- TGI (LXFL 529 NSCLC): 8.43 µM
- TGI (M14 melanoma): 29 µM
- TGI (M19-MEL melanoma): 28.3 µM
- TGI (MALME-3M melanoma): 36.4 µM
- TGI (MCF7 breast): 24.1 µM
- TGI (MDA-MB-231 breast): 35.1 µM
- TGI (MDA-MB-435): 30.9 µM
- TGI (MDA-N): 30.1 µM
- TGI (MOLT-4 leukemia): 29.7 µM
- TGI (NCI-H226 lung): 51.6 µM
- TGI (NCI-H23 lung): 31.8 µM
- TGI (NCI-H460 lung): 35.8 µM
- TGI (NCI-H522 lung): 8.13 µM
- TGI (NCI/ADR-RES ovarian): 55.5 µM
- TGI (OVCAR-3 ovarian): 33.3 µM
- TGI (OVCAR-4 ovarian): 42.5 µM
- TGI (OVCAR-5 ovarian): 27.1 µM
- TGI (OVCAR-8 ovarian): 38.5 µM
- TGI (P388 leukemia): > 27.2 µM
- TGI (P388/ADR leukemia): 7.76 µM
- TGI (PC-3 prostate): 31.5 µM
- TGI (RPMI-8226 leukemia): 7.54 µM
- TGI (RXF 393 renal): 26.1 µM
- TGI (SF-268 CNS): 38.3 µM
- TGI (SF-295 CNS): 38.8 µM
- TGI (SF-539 CNS): 25 µM
- TGI (SK-MEL-2 melanoma): 44.5 µM
- TGI (SK-MEL-28 melanoma): 27.3 µM
- TGI (SK-MEL-5 melanoma): 33.5 µM
- TGI (SK-OV-3 ovarian): 51.6 µM
- TGI (SN12C renal): 35.9 µM
- TGI (SN12K1 renal): 31 µM
- TGI (SNB-19 CNS): 39.9 µM
- TGI (SNB-75 CNS): 51.6 µM
- TGI (SNB-78 CNS): 47.3 µM
- TGI (SR leukemia): 53.3 µM
- TGI (SW-620 colon): 16.5 µM
- TGI (T-47D breast): 44 µM
- TGI (TK-10 renal): 26.7 µM
- TGI (U251 CNS): 31.7 µM
- TGI (UACC-257 melanoma): 21.3 µM
- TGI (UACC-62 melanoma): 31.1 µM
- TGI (UO-31 renal): 26.6 µM
- TGI (XF 498 CNS): 29.1 µM
